Like-named read-outs stand apart in the source and are kept apart here.
Tests used:
RPE1 cell line = experiment: Cytotoxicity on non-cancerous cell line, CellTiter Glo luminescent cell viability assay, 72 h; type: cell-based, human; settings: RPE1; 10 and 1 µM (compounds) or 10 and 1 µg/mL (extract)
Procedure: (§1) Biological activity assays were conducted on microbial extract from Micromonospora sp. SH-82 and on isolated compounds 1, 2, 3, and 5. The tests focused on antiplasmodial and cytotoxic activity. Detailed protocols for these activity tests can be found in reference. The cytotoxic activity was performed on human colorectal HCT-116 and mammary MDA-MB-231 carcinoma cells. Human HCT-116 colorectal carcinoma cells were grown in Gibco McCoy’s 5A supplemented with 10% fetal calf serum and 1% glutamine. MDA-MB231 breast carcinomas were grown in RPMI 1640 supplemented with 10% fetal calf serum and 1% glutamine. Human hTERT-RPE1 cells were cultured in DMEM/F12 medium containing 10% fetal calf serum and 1% glutamine, enabling their impact on a healthy cell line. Cell lines were maintained at 37 °C in a humidified atmosphere containing 5% CO2. Cell viability was determined via a luminescent assay according to the manufacturer’s instructions (Promega, Madison, WI, USA). Briefly, the cells were seeded in 96-well plates (2.5 × 10^3 cells/well) containing 90 μL of growth medium. After 24 h of culture, the cells were treated with the tested compounds at 10 and 1 μg/mL (extracts) or at 10 and 1 μM (pure compounds) final concentrations. Control cells were treated with the vehicle (DMSO), and no effect was observed from DMSO diluted at 1/1000. After 72 h of incubation, 100 μL of CellTiter Glo Reagent was added for 15 min before recording luminescence with a spectrophotometric plate reader PolarStar Omega (BMG LabTech, Ortenberg, Germany). The percent viability index was evaluated by two independent assays in triplicate.

[1] = as above; type: cell-based, human; settings: human, hTERT-RPE1 cells (non-cancerous cell line), 72 h, read-out: Percentage of Cell Viability; for viability at 72 h, 1 µM: RPE1, pure compounds at 1 µM; for viability at 72 h, 10 µM: RPE1, pure compounds at 10 µM
Procedure: as §1

[2] = Stability check of compound 5 by new NMR and ESI+-HRMS analyses; type: physicochemical; settings: re-analysis by NMR and ESI+-HRMS prior to biological assays, one year later (Figure S43)
Procedure: Prior to conducting biological assays, it was necessary to ascertain the stability of compound 5. To this end, new NMR and ESI^+-HRMS analyses were recorded (Figures S38–S43). […] The first one could be identified as the 9-hydroxy derivative of 5 and, thus, to 6,9-hemiacetal-9-hydroxy-10,11-anhydroerythronolide B (5.1) (Figure 2). The second one has a carbonyl in C-9 at δC 208.8 and, therefore, corresponds to the open form of the first one: 8-epi-10,11-anhydroerythronolide B (5.2) (Figure 2).

[3] = Cytotoxic activity, CellTiter Glo luminescent cell viability assay, 72 h; type: cell-based; settings: human, read-out: Percentage of Cell Viability
Procedure: as §1

[4] = system: Plasmodium falciparum 3D7; experiment: Antiplasmodial activity, in vitro culture of chloroquine-sensitive strain; type: cell-based
Procedure: Biological activity assays were conducted on microbial extract from Micromonospora sp. SH-82 and on isolated compounds 1, 2, 3, and 5. The tests focused on antiplasmodial and cytotoxic activity. Detailed protocols for these activity tests can be found in reference. The antiplasmodial activity was conducted by using in vitro cultures of the chloroquine-sensitive 3D7 strain of Plasmodium falciparum (BEI Resources, Manassas, VA, USA) following the methodology of Trager and Jensen. The assays were performed in three independent experiments (n = 3), each conducted in duplicate. Artemisinin was used as the positive control, while DMSO served as the vehicle and negative control, representing 100% parasite growth. Untreated red blood cells were also included as a blank. The measurements consisted of determining the concentration required to inhibit 50% of parasite growth (IC50), expressed in µg/mL for the crude extract and in µM for the isolated compounds. IC50 values were calculated via simple linear regression.

[5] = HCT-116 colorectal carcinoma cells, HCT-116, pure compounds at 1 µM
[6] = HCT-116 colorectal carcinoma cells, HCT-116, pure compounds at 10 µM
[7] = MDA-MB-231 breast carcinoma cells, MDA-MB-231, pure compounds at 1 µM
[8] = MDA-MB-231 breast carcinoma cells, MDA-MB-231, pure compounds at 10 µM

stability of the compound (in words) [2]	IC50 ([4]; 3D7, Experiment 1, dose-response curve, Figure 8, read-out: IC50 against Plasmodium falciparum 3D7 (converted)) [µM]	IC50 ([4]; 3D7, Experiment 2, dose-response curve, Figure 8, read-out: IC50 against Plasmodium falciparum 3D7 (converted)) [µM]	IC50 ([4]; 3D7, Experiment 3, dose-response curve, Figure 8, read-out: IC50 against Plasmodium falciparum 3D7 (converted)) [µM]	IC50 ([4]; 3D7, IC50 obtained from the average dose-response curve, Figure 8, read-out: IC50 (mean curve)) [µM]	IC50 ([4]; 3D7, arithmetic mean ± SD of three independent assays, read-out: IC50 against Plasmodium falciparum 3D7 (converted)) [µM]	IC50 ([4]; 3D7, mean ± SD of three independent assays, read-out: IC50 against Plasmodium falciparum 3D7 (converted)) [µg/mL]	IC50 ([4]; 3D7, positive control, read-out: IC50 against Plasmodium falciparum 3D7 (converted)) [µg/mL]	SMILES	toxicity towards healthy cells (in words) (RPE1 cell line)	viability at 72 h, 1 µM [1] [%]	viability at 72 h, 10 µM [1] [%]	viability at 72 h, 1 µM [3, 5] [%]	viability at 72 h, 10 µM [3, 6] [%]	viability at 72 h, 1 µM [3, 7] [%]	viability at 72 h, 10 µM [3, 8] [%]
a mixture of two compounds is observed								CCC1OC(=O)C(C)C(O)C(C)C(O)C2(C)CC(C)C(OC)(O2)C(C)=CC1C (stereo not drawn) [Compound 5, 6,9-hemiacetal-9-O-methyl-10,11-anhydroerythronolide B]	No activity	103 ± 1.52	103 ± 1.77	99.1 ± 0.32	99.7 ± 0.59	100 ± 1.74	99 ± 3.28
	3.61	9.54	5.96	6.31	6.37	6.12 ± 2.87		CCC1OC(=O)C(C)C(OC2CC(C)(OC(C)=O)C(OC(C)=O)C(C)O2)C(C)C(OC2OC(C)CC(N(C)C)C2O)C(C)(OC2CC(N(C)C)C(O)C(C)O2)CC(C)C(=O)C(C)C(O)C1(C)O (stereo not drawn) [Compound 3, megalomicin C1]	No activity	104 ± 1.32	104 ± 1.94	100 ± 1.66	97.3 ± 2.22	102 ± 1.74	98.6 ± 1.38
							0.00636	C[C@@H]1CC[C@H]2[C@@H](C)C(=O)O[C@@H]3O[C@@]4(C)CC[C@@H]1[C@]32OO4 [Artemisinin, reference compound]							

The remaining lines, values behind:

SMILES	stability of the compound (in words) [2]	IC50 ([4]; 3D7, Experiment 1, dose-response curve, Figure 8, read-out: IC50 against Plasmodium falciparum 3D7 (converted)) [µM]	IC50 ([4]; 3D7, Experiment 2, dose-response curve, Figure 8, read-out: IC50 against Plasmodium falciparum 3D7 (converted)) [µM]	IC50 ([4]; 3D7, Experiment 3, dose-response curve, Figure 8, read-out: IC50 against Plasmodium falciparum 3D7 (converted)) [µM]	IC50 ([4]; 3D7, IC50 obtained from the average dose-response curve, Figure 8, read-out: IC50 (mean curve)) [µM]	IC50 ([4]; 3D7, arithmetic mean ± SD of three independent assays, read-out: IC50 against Plasmodium falciparum 3D7 (converted)) [µM]	IC50 ([4]; 3D7, mean ± SD of three independent assays, read-out: IC50 against Plasmodium falciparum 3D7 (converted)) [µg/mL]	IC50 ([4]; 3D7, positive control, read-out: IC50 against Plasmodium falciparum 3D7 (converted)) [µg/mL]	toxicity towards healthy cells (in words) (RPE1 cell line)	viability at 72 h, 1 µM [1] [%]	viability at 72 h, 10 µM [1] [%]	viability at 72 h, 1 µM [3, 5] [%]	viability at 72 h, 10 µM [3, 6] [%]	viability at 72 h, 1 µM [3, 7] [%]	viability at 72 h, 10 µM [3, 8] [%]
CC[C@H]1OC(=O)[C@H](C)[C@@H](O)[C@H](C)[C@@H](O)[C@](C)(O)C[C@@H](C)C(=O)[C@H](C)[C@@H](O)[C@H]1C [Compound 1, Erythronolide B]									No activity	102 ± 1.58	97.3 ± 1.03	101 ± 0.5	104 ± 1.16	107 ± 0.86	100 ± 0.76
CC[C@H]1OC(=O)[C@H](C)[C@@H](O)[C@H](C)[C@@H](O)[C@@H](C)C[C@@H](C)C(=O)[C@H](C)[C@@H](O)[C@H]1C [Compound 2, 6-desoxyerythronolide B]									No activity	99.1 ± 1.4	95.3 ± 0.96	101 ± 1.62	103 ± 3.56	105 ± 1.56	101 ± 1.13
